From US20080124753A1, “SpiceMatrix Technology for Taste Compound Identification” (priority 2006, published 2008)
Entries after “also recorded” stand apart in the source; their conditions may differ.

How the values were obtained:
TRPA1 [1] = target: T1, TRPA1 (Homo sapiens, UniProt O75762); assay: FMP membrane potential fluorescence assay, TRPA1 transfected HEK 293 cells; assay type: cell-based; details: for relative stimulation of TRPA1 (SpiceMatrix reactivity): FIG. 2A, relative to untransfected HEK-293 cells (Parentals), among 68 compounds
T1 sequence (O75762 whole entry): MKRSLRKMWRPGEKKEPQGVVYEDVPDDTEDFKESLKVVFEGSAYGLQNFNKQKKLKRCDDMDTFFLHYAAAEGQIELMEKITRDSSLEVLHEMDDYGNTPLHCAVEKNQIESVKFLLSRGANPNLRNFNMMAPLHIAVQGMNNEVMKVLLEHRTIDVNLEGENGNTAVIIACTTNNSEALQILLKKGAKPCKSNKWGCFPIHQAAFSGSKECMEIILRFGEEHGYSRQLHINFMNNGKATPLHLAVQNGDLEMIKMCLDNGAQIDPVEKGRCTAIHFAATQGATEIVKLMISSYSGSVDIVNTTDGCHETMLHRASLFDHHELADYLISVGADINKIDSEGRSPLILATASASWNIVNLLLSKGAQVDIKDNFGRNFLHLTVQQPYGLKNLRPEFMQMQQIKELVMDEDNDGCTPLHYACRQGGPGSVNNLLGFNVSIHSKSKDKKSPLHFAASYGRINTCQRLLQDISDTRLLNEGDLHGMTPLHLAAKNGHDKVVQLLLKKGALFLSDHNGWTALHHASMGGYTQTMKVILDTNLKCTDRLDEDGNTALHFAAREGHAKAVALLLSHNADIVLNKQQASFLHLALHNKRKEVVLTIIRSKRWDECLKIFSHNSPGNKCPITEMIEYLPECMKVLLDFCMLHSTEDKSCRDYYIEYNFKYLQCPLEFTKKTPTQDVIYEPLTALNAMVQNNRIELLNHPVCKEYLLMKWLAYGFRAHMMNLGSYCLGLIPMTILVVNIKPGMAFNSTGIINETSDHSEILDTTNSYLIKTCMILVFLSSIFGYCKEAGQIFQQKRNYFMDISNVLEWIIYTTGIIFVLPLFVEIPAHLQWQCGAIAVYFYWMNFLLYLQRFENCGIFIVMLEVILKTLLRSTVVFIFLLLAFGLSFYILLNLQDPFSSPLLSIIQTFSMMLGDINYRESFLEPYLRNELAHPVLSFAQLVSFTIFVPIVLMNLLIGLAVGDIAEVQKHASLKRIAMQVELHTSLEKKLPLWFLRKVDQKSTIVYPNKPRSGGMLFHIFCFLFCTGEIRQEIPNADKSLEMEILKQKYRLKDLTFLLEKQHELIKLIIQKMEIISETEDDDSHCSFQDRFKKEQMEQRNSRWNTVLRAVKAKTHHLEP
Text: (§1) As described in greater detail below, HEK 293 cells, transiently transfected with plasmid bearing the genes encoding the various ion channels, were used to develop SpiceMatrix fingerprint assay. Indirect measurement of the changes in ion concentrations within the HEK 293 cells were made using a FMP dye and stimulation of the cells using calcium activating agents. Described below are the conditions for screening using TRPM5. Screening conditions for other TRP ion channels were similar to those described unless otherwise indicated.
1.0×10^6 HEK 293 cells (ATCC) were plated in each well of a 6-well tissue culture dish overnight. The following day, cells were transfected with 4 μg of a pcDNA3.2 vector containing TRPM5 cDNA and 8 μl of Lipofectamine 2000 (Invitrogen), according to the manufacturer's protocol, and incubated overnight. The following day, transfected cells were trypsinized and seeded into 96-well black, clear bottom, poly-D-lysine plates (Corning) at a density of 70,000 cells/well in a 100 μl volume and incubated in a 37° C./5% CO2 incubator overnight.
(§2) Once the expression of TRPM5 was confirmed in the HEK cells, 100 μl of the Blue or Red FMP dye (Molecular Devices) was added to each well of plates seeded with the transiently transfected cells. The plate was then incubated in a 37° C./5% CO2 incubator for 1 hour. The plate was read in a FLEXStation microplate reader (Molecular Devices) with an excitation of 530 nm and an emission of 565 nm. The fluorescence was monitored for 3 minutes upon exposure of the cells to a calcium activating agent (carbachol, thrombin peptide or ATP).
For screening of taste compounds, sample dilution sets (four 384 sample plates) were tested in 5, dye-loaded, cell lines to yield 20 assay plates for data collection. One cell plate, a sample plate, and an agonist sample source plate were placed in the FLIPR. To identify samples with agonist activity, 10 μl of samples or standards were added to the cell plate, and sample agonist response fluorescent readings taken for 3 minutes. To identify samples with antagonist activity, agonist, e.g. 100 μM cinnamaldehyde for TRPA1, was added to all wells and agonist response fluorescent readings were taken for 2 minutes. Sample that block this response were nominally antagonists.

TRPA1 [2] = target: T1, TRPA1; details: literature reports; cited from earlier work
TRPM5 = target: T2, TRPM5 (Homo sapiens, UniProt Q9NZQ8); assay: FMP membrane potential fluorescence assay, TRPM5 transfected HEK 293 cells; assay type: cell-based
T2 construct: The full length TRPM5 was excised from the TOPO TA vector; expressed in transfected cells; host or cells: HEK 293 (ATCC)
T2 sequence (Q9NZQ8 1-1165): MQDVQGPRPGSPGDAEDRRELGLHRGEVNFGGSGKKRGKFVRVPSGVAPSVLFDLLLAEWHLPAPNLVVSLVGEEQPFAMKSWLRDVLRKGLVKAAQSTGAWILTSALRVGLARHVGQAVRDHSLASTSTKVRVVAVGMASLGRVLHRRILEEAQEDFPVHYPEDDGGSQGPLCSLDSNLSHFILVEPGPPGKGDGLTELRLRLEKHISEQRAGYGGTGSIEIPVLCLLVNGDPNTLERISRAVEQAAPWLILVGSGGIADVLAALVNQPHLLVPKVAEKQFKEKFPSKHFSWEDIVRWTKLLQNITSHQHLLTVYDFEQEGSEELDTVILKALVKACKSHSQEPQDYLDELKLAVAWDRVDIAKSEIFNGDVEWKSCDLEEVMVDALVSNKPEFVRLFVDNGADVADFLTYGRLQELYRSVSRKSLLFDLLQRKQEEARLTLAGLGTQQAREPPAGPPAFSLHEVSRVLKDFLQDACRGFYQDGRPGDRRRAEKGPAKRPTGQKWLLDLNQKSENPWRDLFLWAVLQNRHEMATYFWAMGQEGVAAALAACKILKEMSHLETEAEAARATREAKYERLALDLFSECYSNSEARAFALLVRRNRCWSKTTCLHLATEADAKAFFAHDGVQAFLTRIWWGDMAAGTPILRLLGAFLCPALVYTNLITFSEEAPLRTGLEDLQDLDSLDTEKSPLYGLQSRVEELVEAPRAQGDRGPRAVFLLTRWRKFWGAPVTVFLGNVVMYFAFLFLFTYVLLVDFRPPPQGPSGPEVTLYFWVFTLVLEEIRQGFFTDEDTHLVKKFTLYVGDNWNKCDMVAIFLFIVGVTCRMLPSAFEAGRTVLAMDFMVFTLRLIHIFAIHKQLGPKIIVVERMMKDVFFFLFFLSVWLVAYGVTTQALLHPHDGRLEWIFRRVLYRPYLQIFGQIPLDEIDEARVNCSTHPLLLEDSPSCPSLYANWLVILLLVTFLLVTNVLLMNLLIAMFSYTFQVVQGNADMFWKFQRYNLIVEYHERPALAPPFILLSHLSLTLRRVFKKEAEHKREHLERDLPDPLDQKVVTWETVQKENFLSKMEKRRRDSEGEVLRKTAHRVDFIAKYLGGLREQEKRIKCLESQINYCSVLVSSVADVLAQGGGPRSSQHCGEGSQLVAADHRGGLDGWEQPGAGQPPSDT
Text: as §1, with “indicated. […]” for “indicated.”
as §2, with “The plate was then incubated in a 37° C./5% CO2 incubator for 1 hour.” left out
For screening of taste compounds, sample dilution sets (four 384 sample plates) were tested in 5, dye-loaded, cell lines to yield 20 assay plates for data collection. […] To identify samples with agonist activity, 10 μl of samples or standards were added to the cell plate, and sample agonist response fluorescent readings taken for 3 minutes. […]

TRPV1 [3] = target: T3, TRPV1 (Homo sapiens, UniProt Q8NER1); assay: FMP membrane potential fluorescence assay, TRPV1 transfected HEK 293 cells; assay type: cell-based
T3 sequence (Q8NER1 whole entry): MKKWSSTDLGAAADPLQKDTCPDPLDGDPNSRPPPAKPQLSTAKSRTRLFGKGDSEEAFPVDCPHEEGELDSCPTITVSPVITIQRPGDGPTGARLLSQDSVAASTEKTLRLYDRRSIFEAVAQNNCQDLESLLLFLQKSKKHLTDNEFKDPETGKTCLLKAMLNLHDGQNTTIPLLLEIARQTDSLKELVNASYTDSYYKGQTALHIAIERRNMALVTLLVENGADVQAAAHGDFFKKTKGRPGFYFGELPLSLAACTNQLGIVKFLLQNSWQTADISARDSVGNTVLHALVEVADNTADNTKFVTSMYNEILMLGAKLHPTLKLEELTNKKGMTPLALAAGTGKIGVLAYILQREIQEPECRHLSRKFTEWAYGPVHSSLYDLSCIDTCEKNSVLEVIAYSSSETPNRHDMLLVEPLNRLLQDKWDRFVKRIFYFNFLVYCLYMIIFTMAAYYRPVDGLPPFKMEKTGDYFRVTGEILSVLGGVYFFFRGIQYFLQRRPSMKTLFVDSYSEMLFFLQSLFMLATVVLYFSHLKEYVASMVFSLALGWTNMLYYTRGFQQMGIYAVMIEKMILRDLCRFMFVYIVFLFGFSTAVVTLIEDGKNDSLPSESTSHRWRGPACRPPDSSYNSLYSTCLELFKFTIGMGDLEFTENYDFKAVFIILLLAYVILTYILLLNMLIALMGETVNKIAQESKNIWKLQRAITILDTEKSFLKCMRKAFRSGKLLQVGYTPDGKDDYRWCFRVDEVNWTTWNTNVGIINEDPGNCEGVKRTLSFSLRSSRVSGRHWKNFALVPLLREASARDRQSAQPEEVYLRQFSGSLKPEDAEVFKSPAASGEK
Text: as §1
(§3) 1.0×10^6 HEK 293 cells (ATCC) were plated in each well of a 6-well tissue culture dish overnight. The following day, cells were transfected with 4 μg of a pcDNA3.2 vector containing TRPM5 cDNA and 8 μl of Lipofectamine 2000 (Invitrogen), according to the manufacturer's protocol, and incubated overnight. […]
as §2, with “The plate was then incubated in a 37° C./5% CO2 incubator for 1 hour.” left out, “ATP). […]” for “ATP).”

mouse TRPA1 = target: T4, mouse TRPA1 (Mus musculus, UniProt Q8BLA8); details: mouse TRPA1-CHO cells, literature report; cited from earlier work
T4 construct: host or cells: CHO
T4 sequence (Q8BLA8 whole entry): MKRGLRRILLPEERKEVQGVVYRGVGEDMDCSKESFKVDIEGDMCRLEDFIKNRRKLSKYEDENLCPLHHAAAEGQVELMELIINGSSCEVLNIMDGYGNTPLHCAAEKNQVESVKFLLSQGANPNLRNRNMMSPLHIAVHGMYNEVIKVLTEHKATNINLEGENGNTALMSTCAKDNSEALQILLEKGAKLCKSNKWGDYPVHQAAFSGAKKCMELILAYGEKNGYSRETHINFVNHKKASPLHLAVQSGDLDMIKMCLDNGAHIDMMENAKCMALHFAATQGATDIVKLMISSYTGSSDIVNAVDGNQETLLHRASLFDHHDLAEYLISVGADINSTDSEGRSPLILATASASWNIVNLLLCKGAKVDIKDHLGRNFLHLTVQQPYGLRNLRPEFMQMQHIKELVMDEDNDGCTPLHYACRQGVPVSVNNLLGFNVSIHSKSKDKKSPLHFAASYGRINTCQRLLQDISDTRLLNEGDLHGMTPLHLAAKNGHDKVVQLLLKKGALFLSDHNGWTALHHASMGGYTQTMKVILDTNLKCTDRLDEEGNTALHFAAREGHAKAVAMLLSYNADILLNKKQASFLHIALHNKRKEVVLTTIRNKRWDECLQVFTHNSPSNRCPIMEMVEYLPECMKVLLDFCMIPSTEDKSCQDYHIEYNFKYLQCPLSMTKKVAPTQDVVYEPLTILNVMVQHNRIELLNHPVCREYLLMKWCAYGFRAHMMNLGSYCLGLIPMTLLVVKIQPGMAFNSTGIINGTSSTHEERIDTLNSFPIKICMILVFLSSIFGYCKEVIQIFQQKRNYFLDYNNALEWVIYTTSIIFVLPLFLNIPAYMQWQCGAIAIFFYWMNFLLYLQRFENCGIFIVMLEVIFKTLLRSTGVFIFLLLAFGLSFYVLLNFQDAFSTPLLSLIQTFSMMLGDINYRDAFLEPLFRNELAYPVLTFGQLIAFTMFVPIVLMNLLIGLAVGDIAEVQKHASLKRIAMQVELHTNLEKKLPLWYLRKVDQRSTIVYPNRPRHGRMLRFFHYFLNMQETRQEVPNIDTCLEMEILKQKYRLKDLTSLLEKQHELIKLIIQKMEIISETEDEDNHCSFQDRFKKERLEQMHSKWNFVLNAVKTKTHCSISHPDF

TRPV1 [4] = target: T3, TRPV1; details: literature report (Calixto et al.); cited from earlier work
TRPM8 [5] = target: T5, TRPM8 (Homo sapiens, UniProt Q7Z2W7); details: literature reports; cited from earlier work
T5 sequence (Q7Z2W7 whole entry): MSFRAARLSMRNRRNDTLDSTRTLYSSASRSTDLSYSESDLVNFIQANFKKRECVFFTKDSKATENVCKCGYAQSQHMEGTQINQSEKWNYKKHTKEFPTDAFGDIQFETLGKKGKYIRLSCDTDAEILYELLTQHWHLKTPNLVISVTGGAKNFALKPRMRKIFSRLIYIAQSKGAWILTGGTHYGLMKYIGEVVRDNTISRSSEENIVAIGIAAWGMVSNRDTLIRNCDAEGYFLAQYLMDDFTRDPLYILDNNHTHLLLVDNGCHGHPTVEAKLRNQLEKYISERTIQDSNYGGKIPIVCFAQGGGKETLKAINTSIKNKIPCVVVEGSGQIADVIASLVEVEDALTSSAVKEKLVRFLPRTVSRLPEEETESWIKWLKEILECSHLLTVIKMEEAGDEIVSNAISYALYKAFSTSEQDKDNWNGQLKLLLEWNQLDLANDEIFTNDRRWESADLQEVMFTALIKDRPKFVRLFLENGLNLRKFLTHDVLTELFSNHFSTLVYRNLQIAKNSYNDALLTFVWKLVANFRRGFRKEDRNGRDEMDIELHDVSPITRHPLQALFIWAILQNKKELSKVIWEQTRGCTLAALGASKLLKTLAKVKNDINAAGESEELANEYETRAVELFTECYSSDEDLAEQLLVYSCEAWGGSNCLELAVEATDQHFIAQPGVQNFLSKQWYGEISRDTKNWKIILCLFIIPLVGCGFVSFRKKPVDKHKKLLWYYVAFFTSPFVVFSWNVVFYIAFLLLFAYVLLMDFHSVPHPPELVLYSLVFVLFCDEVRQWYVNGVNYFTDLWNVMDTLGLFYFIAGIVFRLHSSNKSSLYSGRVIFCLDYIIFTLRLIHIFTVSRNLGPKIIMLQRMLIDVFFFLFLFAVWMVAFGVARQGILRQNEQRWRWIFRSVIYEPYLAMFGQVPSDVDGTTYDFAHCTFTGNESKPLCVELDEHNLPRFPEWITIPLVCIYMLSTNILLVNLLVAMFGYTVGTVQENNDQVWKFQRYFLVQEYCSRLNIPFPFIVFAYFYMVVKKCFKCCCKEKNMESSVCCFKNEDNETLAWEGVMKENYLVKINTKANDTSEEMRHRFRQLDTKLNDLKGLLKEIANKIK

TRPM8 [6] = target: T5, TRPM8; assay: FMP membrane potential fluorescence assay, TRPM8 transfected HEK 293 cells; assay type: cell-based; details: FIG. 1D, FLIPR
Text: as §1, §3
as §2, with “The plate was then incubated in a 37° C./5% CO2 incubator for 1 hour.” left out, “ATP). […]” for “ATP).”

SMILES	relative stimulation of TRPA1 (SpiceMatrix reactivity) (TRPA1 [1])	activation of TRPA1 (TRPA1 [2])	increase in intracellular free Ca2+ (mouse TRPA1)	activation of TRPV1 (TRPV1 [4])	activation of TRPM8 (TRPM8 [5])	further results
CC1CCC(C(C)C)C(O)C1 (single isomer, unassigned; (-)) [(−) menthol]	greatest stimulation of TRPA1					
CCCCCc1cc(O)c2c(c1)OC(C)(C)[C@@H]1CCC(C)=C[C@@H]21 [A^9-tetrahydrocannabinol]		activated				
C=CCN=C=S [allyl isothiocyanate]	highly reactive	specific activators of TRPA1				relative stimulation of TRPM5 (SpiceMatrix reactivity) (TRPM5; FIG. 2, relative to untransfected HEK-293 cells (Parentals)): highly reactive
COc1cc(CNC(=O)CCCC/C=C/C(C)C)ccc1O [capsaicin]						change in relative fluorescent intensity of a voltage-sensitive dye (TRPV1 [3]; FIG. 1C, TRPV1 transfected cells, FMP dye, FLIPR): strong spike in relative fluorescence; also recorded: activates TRPV1
C[N+](C)(C)CCOC(N)=O [carbachol]						change in relative fluorescent intensity of a voltage-sensitive dye (TRPM5; FIG. 1B, TRPM5 transfected cells, FMP dye, FLIPR): strong spike in relative fluorescence; also recorded: increases TRPM5
O=CC=Cc1ccccc1 [cinnamaldehyde]	greatest stimulation of TRPA1	activated; also recorded: specific activators of TRPA1				change in relative fluorescent intensity of a voltage-sensitive dye (TRPA1 [1]; FIG. 1A, TRPA1 transfected cells, FMP dye, FLIPR): strong spike in relative fluorescence; also recorded: activates TRPA1
C=CCc1ccc(O)c(OC)c1 [eugenol]		activate	sharp increase	activate	activate	
CCCCC[C@H](O)CC(=O)CCc1ccc(O)c(OC)c1 [gingerol]		activate	sharp increase	activate	activate	relative stimulation of TRPV1 (SpiceMatrix reactivity) (TRPV1 [3]; FIG. 2A, relative to untransfected HEK-293 cells (Parentals), among 68 compounds): highest degree of stimulation to TRPV1
CC1CCC(C(C)C)C(O)C1 (stereo not shown) [menthol]					activate the TRPM8	change in relative fluorescent intensity of a voltage-sensitive dye (TRPM8 [6]): strong spike in relative fluorescence; also recorded: activates TRPM8
COC(=O)c1ccccc1O [methyl salicylate]		activate	sharp increase	activate	activate	
